These results are taken from ChEMBL document CHEMBL5696442, “Discovery of type II inhibitors of TGFβ-activated kinase 1 (TAK1) and mitogen-activated protein kinase kinase kinase kinase 2 (MAP4K2)” (J Med Chem, 2015).

The target of assay [1] is Calcium/calmodulin-dependent protein kinase type II subunit beta (Homo sapiens) (UniProt Q13554). The experiment in a line: Inhibition of CaMK2b Lys2 labeling site in human Huh-7 cells at 1 uM by KiNativ Profiling analysis relative to control. Type of assay: cell-based.
Calcium/calmodulin-dependent protein kinase type II subunit beta (Homo sapiens), sequence (Q13554 whole entry): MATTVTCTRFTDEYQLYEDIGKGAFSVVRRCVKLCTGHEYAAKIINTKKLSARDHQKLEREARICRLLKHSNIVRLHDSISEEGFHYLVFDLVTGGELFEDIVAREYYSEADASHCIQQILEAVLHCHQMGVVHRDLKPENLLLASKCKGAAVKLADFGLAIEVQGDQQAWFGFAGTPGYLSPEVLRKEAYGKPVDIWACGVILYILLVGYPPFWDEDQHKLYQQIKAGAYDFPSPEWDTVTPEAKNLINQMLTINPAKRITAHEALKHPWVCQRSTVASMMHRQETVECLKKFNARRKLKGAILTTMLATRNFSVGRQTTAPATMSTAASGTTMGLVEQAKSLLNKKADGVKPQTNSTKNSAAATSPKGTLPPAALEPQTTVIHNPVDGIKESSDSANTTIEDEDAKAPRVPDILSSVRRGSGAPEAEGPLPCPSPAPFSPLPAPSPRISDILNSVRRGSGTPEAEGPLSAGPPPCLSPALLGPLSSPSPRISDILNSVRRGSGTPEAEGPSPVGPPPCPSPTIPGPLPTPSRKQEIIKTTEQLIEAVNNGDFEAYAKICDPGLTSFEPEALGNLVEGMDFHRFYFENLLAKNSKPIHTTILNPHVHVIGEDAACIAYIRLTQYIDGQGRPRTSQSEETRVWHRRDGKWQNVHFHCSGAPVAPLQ
Assay [2] concerns the target T1, Serine/threonine-protein kinase Chk1 (Homo sapiens) (UniProt O14757).
T1 sequence (whole entry): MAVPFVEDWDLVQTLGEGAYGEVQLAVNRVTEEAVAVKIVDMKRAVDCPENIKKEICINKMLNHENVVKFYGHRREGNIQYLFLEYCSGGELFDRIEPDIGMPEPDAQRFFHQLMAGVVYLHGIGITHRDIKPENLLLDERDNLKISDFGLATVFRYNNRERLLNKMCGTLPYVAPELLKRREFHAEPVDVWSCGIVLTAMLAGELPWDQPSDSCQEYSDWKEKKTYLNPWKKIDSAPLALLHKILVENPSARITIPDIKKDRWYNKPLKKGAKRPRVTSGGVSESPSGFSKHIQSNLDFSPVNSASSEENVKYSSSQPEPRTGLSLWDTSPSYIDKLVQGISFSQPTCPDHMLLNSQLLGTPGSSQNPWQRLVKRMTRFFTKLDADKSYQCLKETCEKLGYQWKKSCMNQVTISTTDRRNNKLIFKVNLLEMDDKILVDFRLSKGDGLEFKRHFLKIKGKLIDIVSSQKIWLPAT
The experiment in a line: Inhibition of CHK1 Lys2 labeling site in human Huh-7 cell lysate at 1 uM by KiNativ Profiling analysis relative to control. Type of assay: subcellular.

In assay [3] the target is 5'-AMP-activated protein kinase catalytic subunit alpha-1 (Homo sapiens) (UniProt Q13131). The experiment in a line: Inhibition of AMPKa1 Lys1 labeling site in human Huh-7 cells at 1 uM by KiNativ Profiling analysis relative to control. Type of assay: cell-based.
5'-AMP-activated protein kinase catalytic subunit alpha-1 (Homo sapiens), sequence (Q13131 whole entry, looked up): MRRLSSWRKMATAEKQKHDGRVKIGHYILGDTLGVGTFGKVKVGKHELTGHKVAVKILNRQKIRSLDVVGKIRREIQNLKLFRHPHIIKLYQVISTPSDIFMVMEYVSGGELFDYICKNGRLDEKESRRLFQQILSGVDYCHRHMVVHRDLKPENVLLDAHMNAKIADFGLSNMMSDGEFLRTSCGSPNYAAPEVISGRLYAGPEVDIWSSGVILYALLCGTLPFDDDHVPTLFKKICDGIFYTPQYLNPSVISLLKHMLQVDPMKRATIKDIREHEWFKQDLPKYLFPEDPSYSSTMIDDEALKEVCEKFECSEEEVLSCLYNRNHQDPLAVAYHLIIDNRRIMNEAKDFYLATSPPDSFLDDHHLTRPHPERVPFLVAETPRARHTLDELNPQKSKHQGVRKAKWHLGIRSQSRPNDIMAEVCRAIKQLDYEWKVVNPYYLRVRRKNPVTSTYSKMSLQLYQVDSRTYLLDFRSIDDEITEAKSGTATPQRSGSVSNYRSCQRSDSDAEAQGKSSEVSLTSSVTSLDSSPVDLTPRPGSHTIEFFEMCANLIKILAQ
Assay [4] addresses Mitogen-activated protein kinase 4 (Homo sapiens) (UniProt P31152). In words: Inhibition of ERK4 (unknown origin) at 1 uM by Ambit Kinomescan binding assay relative to control.
Assay [5] has as its target Tyrosine-protein kinase JAK2 (Homo sapiens) (UniProt O60674). In words: Inhibition of JAK2 JH1catalytic domain (unknown origin) at 1 uM by Ambit Kinomescan binding assay relative to control.
Assay [6] deals with Dual specificity tyrosine-phosphorylation-regulated kinase 2 (Homo sapiens) (UniProt Q92630). The experiment in a line: Inhibition of DYRK2 (unknown origin) at 1 uM by Ambit Kinomescan binding assay relative to control; values are per cent of control.
Dual specificity tyrosine-phosphorylation-regulated kinase 2 (Homo sapiens), sequence (Q92630 whole entry): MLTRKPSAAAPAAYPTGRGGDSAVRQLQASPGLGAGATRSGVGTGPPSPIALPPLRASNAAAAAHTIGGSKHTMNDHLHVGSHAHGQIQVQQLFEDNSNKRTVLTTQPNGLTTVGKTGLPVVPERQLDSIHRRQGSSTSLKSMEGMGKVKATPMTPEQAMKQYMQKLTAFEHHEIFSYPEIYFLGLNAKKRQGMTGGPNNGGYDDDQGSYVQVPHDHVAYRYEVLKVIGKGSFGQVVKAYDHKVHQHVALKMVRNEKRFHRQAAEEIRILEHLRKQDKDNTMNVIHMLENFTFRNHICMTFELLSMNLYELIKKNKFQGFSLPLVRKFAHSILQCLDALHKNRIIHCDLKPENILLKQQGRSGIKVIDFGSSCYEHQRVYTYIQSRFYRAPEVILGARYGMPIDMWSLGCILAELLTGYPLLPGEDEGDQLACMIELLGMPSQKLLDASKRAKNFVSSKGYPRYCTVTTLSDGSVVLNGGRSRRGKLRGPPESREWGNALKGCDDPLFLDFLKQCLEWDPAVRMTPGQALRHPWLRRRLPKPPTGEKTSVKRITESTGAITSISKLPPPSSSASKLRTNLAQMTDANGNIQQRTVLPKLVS
The target of assay [7] is Cyclin-dependent kinase 8 (Homo sapiens) (UniProt P49336). The experiment in a line: Inhibition of CDK8 (unknown origin) at 1 uM by Ambit Kinomescan binding assay relative to control.
Cyclin-dependent kinase 8 (Homo sapiens), sequence (P49336 whole entry): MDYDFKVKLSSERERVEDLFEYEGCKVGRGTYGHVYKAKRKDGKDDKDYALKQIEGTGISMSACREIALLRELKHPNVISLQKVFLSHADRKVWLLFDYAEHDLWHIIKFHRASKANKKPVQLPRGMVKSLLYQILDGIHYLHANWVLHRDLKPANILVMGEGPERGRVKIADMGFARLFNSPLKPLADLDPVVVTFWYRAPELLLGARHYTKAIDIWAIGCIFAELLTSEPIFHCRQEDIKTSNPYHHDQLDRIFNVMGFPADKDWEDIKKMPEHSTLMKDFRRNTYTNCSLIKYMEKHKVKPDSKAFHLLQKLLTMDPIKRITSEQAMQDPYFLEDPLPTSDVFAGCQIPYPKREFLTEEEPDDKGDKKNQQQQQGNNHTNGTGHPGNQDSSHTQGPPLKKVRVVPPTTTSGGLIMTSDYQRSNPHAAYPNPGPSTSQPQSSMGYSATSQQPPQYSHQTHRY
The target of assay [8] is Tyrosine-protein kinase Fyn (Homo sapiens) (UniProt P06241). In words: Inhibition of FYN ACT labeling site in human Huh-7 cells at 1 uM by KiNativ Profiling analysis relative to control. Format: cell-based.
Assay [9] deals with Casein kinase I isoform alpha-like (Homo sapiens) (UniProt Q8N752). The experiment in a line: Inhibition of CSNK1A1L (unknown origin) at 10 uM by Ambit Kinomescan binding assay.
In assay [10] the target is T2, Serine/threonine-protein kinase TAO2 (Homo sapiens) (UniProt Q9UL54).
T2 sequence (whole entry): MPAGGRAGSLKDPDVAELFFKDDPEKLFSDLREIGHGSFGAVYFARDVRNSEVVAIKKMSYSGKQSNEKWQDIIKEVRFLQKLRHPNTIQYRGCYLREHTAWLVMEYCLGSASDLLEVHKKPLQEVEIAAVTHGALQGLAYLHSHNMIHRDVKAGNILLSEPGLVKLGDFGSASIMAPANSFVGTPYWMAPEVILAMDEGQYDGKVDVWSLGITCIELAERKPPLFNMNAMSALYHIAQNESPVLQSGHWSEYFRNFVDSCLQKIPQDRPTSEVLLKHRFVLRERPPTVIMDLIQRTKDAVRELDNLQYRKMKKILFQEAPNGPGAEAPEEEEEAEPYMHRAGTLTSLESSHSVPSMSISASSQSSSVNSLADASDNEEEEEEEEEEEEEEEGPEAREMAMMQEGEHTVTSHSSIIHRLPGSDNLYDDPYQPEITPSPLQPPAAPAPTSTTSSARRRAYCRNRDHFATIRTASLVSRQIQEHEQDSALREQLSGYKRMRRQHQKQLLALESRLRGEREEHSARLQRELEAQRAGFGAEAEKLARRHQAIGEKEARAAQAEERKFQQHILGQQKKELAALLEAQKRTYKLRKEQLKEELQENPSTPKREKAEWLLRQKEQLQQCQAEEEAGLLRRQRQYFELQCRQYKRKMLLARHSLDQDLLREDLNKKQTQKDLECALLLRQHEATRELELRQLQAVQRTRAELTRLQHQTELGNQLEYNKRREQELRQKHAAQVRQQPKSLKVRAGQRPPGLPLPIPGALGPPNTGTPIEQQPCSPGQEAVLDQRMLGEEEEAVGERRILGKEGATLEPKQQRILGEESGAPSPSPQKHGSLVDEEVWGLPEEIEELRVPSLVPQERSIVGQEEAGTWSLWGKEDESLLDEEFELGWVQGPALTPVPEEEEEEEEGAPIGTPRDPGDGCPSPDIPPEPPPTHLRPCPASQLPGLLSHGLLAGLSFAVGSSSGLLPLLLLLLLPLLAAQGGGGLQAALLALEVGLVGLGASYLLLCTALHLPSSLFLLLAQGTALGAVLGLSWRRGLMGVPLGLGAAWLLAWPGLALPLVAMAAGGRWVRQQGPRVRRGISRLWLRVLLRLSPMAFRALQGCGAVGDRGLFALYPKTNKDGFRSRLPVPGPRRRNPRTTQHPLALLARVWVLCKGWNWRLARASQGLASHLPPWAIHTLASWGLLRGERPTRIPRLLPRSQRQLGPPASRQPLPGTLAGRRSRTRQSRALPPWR
In words: Inhibition of TAO2 K2 labeling site in human Huh-7 cells at 1 uM by KiNativ Profiling analysis relative to control. Type of assay: cell-based.

In assay [11] the target is Cyclin-dependent kinase 8 (Homo sapiens) (UniProt P49336). The experiment in a line: Inhibition of CDK8 Lys2 labeling site in human A-375 cells at 0.5 uM by KiNativ Profiling analysis relative to control. Type of assay: cell-based.
Assay [12] concerns the target Epidermal growth factor receptor (Homo sapiens) (UniProt P00533). In words: Inhibition of EGFR Lys1 labeling site in human A-375 cells at 0.05 uM by KiNativ Profiling analysis relative to control. Format: cell-based.
Assay [13] addresses Tyrosine-protein kinase Yes (Homo sapiens) (UniProt P07947). In words: Inhibition of YES ACT labeling site in human Huh-7 cells at 1 uM by KiNativ Profiling analysis relative to control. Format: cell-based.
For assay [14], the target named is Serine/threonine-protein kinase Nek7 (Homo sapiens) (UniProt Q8TDX7). In words: Inhibition of NEK7 ACT labeling site in human A-375 cells at 0.5 uM by KiNativ Profiling analysis relative to control. Format: cell-based.
Serine/threonine-protein kinase Nek7 (Homo sapiens), sequence (Q8TDX7 whole entry, looked up): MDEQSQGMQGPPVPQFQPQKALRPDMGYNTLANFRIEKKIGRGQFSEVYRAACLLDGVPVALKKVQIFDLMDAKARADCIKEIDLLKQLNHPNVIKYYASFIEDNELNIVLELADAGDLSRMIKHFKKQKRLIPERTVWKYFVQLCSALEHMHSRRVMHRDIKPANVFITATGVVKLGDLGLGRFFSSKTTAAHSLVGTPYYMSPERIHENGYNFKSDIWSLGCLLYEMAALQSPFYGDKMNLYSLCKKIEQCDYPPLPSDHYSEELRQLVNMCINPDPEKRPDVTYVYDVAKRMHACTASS

Each structure is given as a SMILES string. Calls of active or inactive are those of the source. No cut-off for these calls is given here.

Mitogen-activated protein kinase 4 (Homo sapiens), sequence (P31152 whole entry, the tested form may be a part): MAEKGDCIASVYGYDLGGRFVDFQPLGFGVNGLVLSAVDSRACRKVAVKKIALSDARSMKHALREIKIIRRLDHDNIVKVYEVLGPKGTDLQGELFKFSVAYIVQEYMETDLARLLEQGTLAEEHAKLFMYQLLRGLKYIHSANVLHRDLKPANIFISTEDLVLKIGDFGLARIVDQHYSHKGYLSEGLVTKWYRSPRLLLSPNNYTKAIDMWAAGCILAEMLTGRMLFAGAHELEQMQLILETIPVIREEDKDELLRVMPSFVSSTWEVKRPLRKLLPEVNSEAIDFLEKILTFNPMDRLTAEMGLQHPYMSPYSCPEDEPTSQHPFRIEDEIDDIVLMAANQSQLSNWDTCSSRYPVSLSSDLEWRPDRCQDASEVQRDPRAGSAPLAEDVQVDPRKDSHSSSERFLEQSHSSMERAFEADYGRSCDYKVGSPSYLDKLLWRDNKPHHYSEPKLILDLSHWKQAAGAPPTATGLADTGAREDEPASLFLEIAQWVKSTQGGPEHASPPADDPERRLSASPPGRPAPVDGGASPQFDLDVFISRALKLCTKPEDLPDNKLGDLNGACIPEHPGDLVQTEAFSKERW
Tyrosine-protein kinase Yes (Homo sapiens), sequence (P07947 2-543 limits assumed): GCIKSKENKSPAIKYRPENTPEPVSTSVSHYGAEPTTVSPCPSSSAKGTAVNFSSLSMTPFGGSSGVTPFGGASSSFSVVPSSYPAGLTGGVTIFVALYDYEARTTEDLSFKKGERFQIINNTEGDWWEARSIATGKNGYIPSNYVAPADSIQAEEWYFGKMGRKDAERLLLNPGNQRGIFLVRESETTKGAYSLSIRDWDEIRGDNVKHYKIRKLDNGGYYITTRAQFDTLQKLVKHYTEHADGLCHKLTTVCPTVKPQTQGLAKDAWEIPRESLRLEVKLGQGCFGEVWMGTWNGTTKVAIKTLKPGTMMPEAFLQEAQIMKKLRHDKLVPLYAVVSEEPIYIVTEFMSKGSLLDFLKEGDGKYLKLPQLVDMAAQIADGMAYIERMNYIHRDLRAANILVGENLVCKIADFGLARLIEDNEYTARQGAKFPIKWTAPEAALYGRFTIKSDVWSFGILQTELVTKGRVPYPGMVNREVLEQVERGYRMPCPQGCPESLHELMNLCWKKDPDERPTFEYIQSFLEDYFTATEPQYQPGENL
Epidermal growth factor receptor (Homo sapiens), sequence (P00533 whole entry): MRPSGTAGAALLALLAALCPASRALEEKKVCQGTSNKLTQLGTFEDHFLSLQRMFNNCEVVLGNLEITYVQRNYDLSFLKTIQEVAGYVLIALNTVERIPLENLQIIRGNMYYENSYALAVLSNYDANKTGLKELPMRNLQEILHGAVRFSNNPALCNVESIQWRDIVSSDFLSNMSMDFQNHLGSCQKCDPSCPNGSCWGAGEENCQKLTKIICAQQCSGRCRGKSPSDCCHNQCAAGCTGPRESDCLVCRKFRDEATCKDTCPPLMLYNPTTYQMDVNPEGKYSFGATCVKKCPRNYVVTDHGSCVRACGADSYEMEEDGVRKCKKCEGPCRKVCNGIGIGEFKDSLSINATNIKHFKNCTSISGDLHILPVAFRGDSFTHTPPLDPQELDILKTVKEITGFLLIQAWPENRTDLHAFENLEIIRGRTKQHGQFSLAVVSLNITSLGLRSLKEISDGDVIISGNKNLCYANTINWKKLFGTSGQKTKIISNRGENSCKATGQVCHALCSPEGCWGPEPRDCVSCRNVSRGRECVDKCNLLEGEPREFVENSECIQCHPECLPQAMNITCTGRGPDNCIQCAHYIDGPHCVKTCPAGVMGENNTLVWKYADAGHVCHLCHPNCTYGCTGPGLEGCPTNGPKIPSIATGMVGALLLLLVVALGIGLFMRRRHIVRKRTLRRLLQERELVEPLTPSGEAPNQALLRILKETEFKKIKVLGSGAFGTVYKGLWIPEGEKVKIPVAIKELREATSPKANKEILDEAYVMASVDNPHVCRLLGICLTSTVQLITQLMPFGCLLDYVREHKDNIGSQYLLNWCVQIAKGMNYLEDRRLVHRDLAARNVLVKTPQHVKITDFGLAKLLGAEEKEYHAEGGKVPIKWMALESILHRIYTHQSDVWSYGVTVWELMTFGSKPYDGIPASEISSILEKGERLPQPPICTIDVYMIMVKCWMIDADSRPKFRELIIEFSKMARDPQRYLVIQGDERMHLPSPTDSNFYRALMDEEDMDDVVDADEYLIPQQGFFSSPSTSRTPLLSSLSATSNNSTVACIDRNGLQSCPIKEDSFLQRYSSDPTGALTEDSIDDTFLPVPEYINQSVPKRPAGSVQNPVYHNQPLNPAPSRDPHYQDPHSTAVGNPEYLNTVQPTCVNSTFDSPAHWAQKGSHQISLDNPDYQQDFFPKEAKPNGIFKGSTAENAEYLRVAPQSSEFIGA

The term inhibition denotes the drop in the measured response relative to a control, in per cent. As to `CNc1cc(Oc2cc(C(=O)Nc3cc(N4CCN(C)CC4)cc(C(F)(F)F)c3)ccc2C)ncn1`, the inhibition was 20.3% in assay [1], -1.1% in assay [2] and -7.5% in [3].
The residual activity is the signal under treatment as a percentage of the control signal. A lower residual activity goes with little activity left. As for `CCN1CCN(Cc2ccc(NC(=O)c3ccc(C)c(/C=C/c4cnc5[nH]ccc5c4OC)c3)cc2C(F)(F)F)CC1`, the values for the inhibition in assay [4], in assay [5] and in assay [7] were 77%, 32% and 25%, respectively. This compound also showed a residual activity in assay [6] of 68%.
On to `CCN1CCN(Cc2ccc(NC(=O)c3ccc(C)c(Oc4ccnc5[nH]ccc45)c3)cc2C(F)(F)F)CC1`, for which the inhibition in assay [8] was -0.3%; in assay [10], 4.7%; in [11], 51.2%; in [12] it was 11.7%; in [13], -0.3%; in assay [14] it was 1.6%. The inhibition result in [9] was “inactive”.
